Source: PubChem BioAssay AID179 (DTP/NCI, 2004)
Active and inactive are the calls of the source.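 The calls were made as follows: active = compounds giving half or more protection of infected cells from virus-caused growth loss, again on retest; inactive = the rest.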 Where a SMILES comes first, the peptide text is derived from it.

System: CEM cells HIV-1 protection, formazan growth assay
Test: NCI AIDS Antiviral Assay
Settings: for IC50: measured here: growth of uninfected CEM cells
Procedure, shortened: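 Five concentrations of each compound were applied to infected and uninfected human CEM cells. Protection from HIV-1 was judged from growth measured with a soluble formazan assay.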

SMILES | EC50 [µM] | IC50 [µM] | outcome
O=C1OCCOCCOCCOCCOCCOCCOC(=O)c2cccc1n2 | > 107 | 56.2 | –
Nc1nc2c(c(=O)[nH]1)N=C(COP(=O)(O)OP(=O)(O)O)CN2 | > 200 | 145 | –
COc1ccc2c(c1OC)C(=O)c1cnccc1C2=O | 60.3 | 132 | –
CN(C)c1ccc(/C=C(\C#N)c2ccc(Cl)cc2Cl)cc1 | > 200 | 3.39 | –
CC(=O)c1ccc(NC(=O)/C(CC(=O)/C=C/c2ccccc2)=N/NC(N)=S)cc1 | > 63.1 | > 63.1 | –
COc1ccc(C2CC(c3c(O)ccc4ccccc34)=NN2C(C)=O)cc1OC (centres undefined) | > 200 | 46.8 | –
C/C(=N/N)c1sc(-c2nc(C)c(/C(C)=N\N)s2)nc1C | > 61.7 | > 61.7 | –
O=C1CCc2cc3c(cc21)C(C(=O)O)CC3 (centres undefined) | > 200 | > 200 | –
COc1ccc2[nH]c3cc4c(=O)c5cc(OC)ccc5[nH]c4cc3c(=O)c2c1 | > 72.4 | > 72.4 | –
Cn1c(-c2ccc(Br)cc2)cc2[nH]c(=S)nc(N)c2c1=O | > 100 | > 100 | –
CC(C)(C)CC1=CC(=O)C(C2=CC(=O)C(CC(C)(C)C)=CC2=O)=CC1=O | > 2 | > 2 | –
COc1cc2c(c(OC)c1)C1(CC(CC#N)C2)SCCS1 (centres undefined) | – | – | inactive
CCCCCCCCCCCCCCCCNc1ccn(C2CC(O)C(COC(c3ccccc3)(c3ccccc3)c3ccc(OC)cc3)O2)c(=O)n1 (centres undefined) | > 200 | 45.7 | –
Cn1cc(C(=O)C[n+]2ccccc2)c2ccccc21 | > 224 | 81.3 | –
CON(C)C(=O)C1CCCO1 (centres undefined) | > 200 | > 200 | –
O=C(OC1=CCN(Br)C1=O)C1=C(O)C(=O)N(Br)C1 | > 200 | 32.4 | –
CCN(CC)c1ccc2c(c1)N=C1N=CC=CN1C2(c1ccc(N(C)C)cc1)c1ccc(N(C)C)cc1 | – | – | inactive
CCOC(=O)C1=CNC(C(=O)OCC)C1c1cccn1-c1ccccc1 (centres undefined) | > 200 | 36.3 | –
CCOC(=O)/C(C#N)=c1/s/c(=C(\O)N/N=C/c2ccc(OC)cc2)c(=N)n1-c1ccccc1 | > 4.27 | > 4.27 | –
CC(C)CC(NC(=O)C(Cc1ccc(O)cc1)NC(=O)C(C)N)C(=O)NCC(=O)NC(CCCCN)C(=O)NC(CCCCN)C(=O)NC(C(=O)NC(C)C(=O)NC(C(=O)NC(CC(=O)O)C(=O)O)C(C)O)C(C)C (centres undefined) (H-AYLGKKVATD-OH; configuration not given here) | – | – | inactive
CC1(C)O[C@H]2OC(CO[Si](C)(C)C(C)(C)C)C(N=[N+]=[N-])[C@H]2O1 (some centres undefined) | > 20 | > 20 | –

SMILES | EC50 [µM] | IC50 [µM] | outcome
CCOC(=O)C(NC(=O)CC)(N1CCN(c2cc3c(cc2F)c(=O)c(C(=O)O)cn3C2CC2)CC1)C(F)(F)F (centres undefined) | > 200 | 126 | –
Cc1c(N=Nc2ccc(Cl)cc2)c(C)n(C2OC(CO)C(O)C(O)C2O)c(=S)c1C#N (centres undefined) | > 200 | 34.7 | –
CCC(C)C(=Nc1ccc(Cl)c(Cl)c1)N(C)C (centres undefined) | – | – | inactive
CC(C)(C)c1ccc(Oc2ccc(C#N)c(C#N)c2)c(C(C)(C)C)c1 | > 77.6 | > 77.6 | –
O=C(NO)c1ccc(O)c(O)c1 | > 1480 | 74.1 | –
CC1=Nc2ccccc2N=C(c2c(O)c3ccc4ccccc4c3oc2=O)C1 | > 200 | 49 | –
COc1ccc(NC(=S)/C(=C(/[O-])c2ccc(C)cc2)[n+]2ccccc2)cc1 | – | – | inactive
BrCCOc1ccc(-c2c3ccccc3c(-c3ccc(OCCBr)cc3)c3ccccc23)cc1 | > 100 | > 100 | –
Cc1cn(C2CC(N=[N+]=[N-])C(COC(=O)[C@@]3(O)CC[C@H]4[C@@H]5CCC6=CC(=O)CC[C@]6(C)[C@H]5C(O)C[C@@]43C)O2)c(=O)[nH]c1=O (some centres undefined) | 26.9 | 158 | –
Nc1nc(N)c2nnsc2n1 | > 200 | > 200 | –
COc1ccc(/C=C/C(=O)c2ccccc(=O)c2O)cc1 | > 63.1 | 3.39 | –
C=C(C)C(=O)O[C@H]1C[C@@]23O[C@@H]2CCC(=C[C@H]2OC(=O)C(=C)[C@H]12)COC3O (some centres undefined) | > 195 | 38 | –
CCNCCNC(=O)c1ccc(I)cc1 | – | – | inactive
C=C1C[C@]2(C)c3ccccc3NC(=O)[C@H]12 | 162 | > 200 | –
BrCCC[P+](c1ccccc1)(c1ccccc1)c1ccccc1 | > 20 | 0.912 | –
NNC(=O)c1n[nH]nc1C(=O)NN | > 200 | > 200 | –
NC(CSS(=O)(=O)O)=NCCCC1CCCCC1 | > 200 | 102 | –
O=C(NNc1ccccc1)/C(=C/c1ccc2c(c1)OCO2)NC(=O)c1ccccc1 | > 12.9 | > 12.9 | –
COCCOCCOCCOCCOCCOCCOCCOCCOCCOCCOCCOCCOCCOCCOCCOCCOCC(=O)N(CCn1ccc(NC(c2ccccc2)(c2ccccc2)c2ccccc2)nc1=O)CCn1cnc2nc(NC(=O)c3ccccc3)[nH]c(=O)c21 | > 170 | 85.1 | –
Nc1nc([O-])c2c(n1)[n+](C1OC(CO)C(O)C1O)cn2CCO (centres undefined) | > 759 | > 759 | –
O=C1C(Cl)N(c2ccc(Cl)cc2)C1c1c[nH]c2ccccc12 (centres undefined) | > 204 | 5.13 | –

SMILES | EC50 [µM] | IC50 [µM] | outcome
COC1(OC)N=C(N)C2(C#N)C(c3ccccc3)NC3=C(CCC3)C12C#N (centres undefined) | > 200 | > 200 | –
CCN(CC)CCCNC(=O)C1COc2cc(-c3cc(=O)c4ccccc4o3)ccc2O1 (centres undefined) | – | – | inactive
CCN(CC)CCCNc1ncc(C)c2c1c1ccc3c(O)cccc3c1n2C | > 13.2 | 0.24 | –
Nc1nc(Cl)nc(Cl)n1 | > 200 | > 200 | –
O=C(O)[C@H](NS(=O)(=O)c1ccc2ccccc2c1)c1ccccc1 | – | – | inactive
C=CCc1cc(/C(CC)=C(/CC)c2ccc(OCCN(CC)CC)c(CC=C)c2)ccc1OCCN(CC)CC | > 200 | 8.32 | –
CC(=O)Oc1ccc(C[C@H]2COC(=O)[C@@H]2Cc2ccc(OC(C)=O)c(OC(C)=O)c2)cc1OC(C)=O | > 200 | 17.4 | –
O=S(=O)(O)CO | > 200 | 151 | –
CCN(CC)CC(=O)Nc1cccc(C(=O)OC(C)C)c1 | > 200 | > 200 | –
O=C1OC(=O)C2C3CC(C12)C1C3N1S(=O)(=O)c1ccccc1 (centres undefined) | > 132 | > 132 | –
C=CC1CN(C(=O)OCC)N(C(=O)OCC)C1CCc1ccccc1 (centres undefined) | > 200 | 72.4 | –
COc1cccc(/C=C/C(=O)c2sc(C(N)=S)nc2C)c1O | > 11.2 | > 11.2 | –
C=CC1(C)CC(=O)C2(O)C(O1)C(OC(C)=O)C(OC(C)=O)C1C2C(OC(C)=O)CCC1(C)C (centres undefined) | > 26.9 | > 26.9 | –
O=C1C(Cl)=C(Cl)C(=O)N1c1cccc(C(F)(F)F)c1 | – | – | inactive
Cc1ccc(C2(O)CC(c3ccc([N+](=O)[O-])o3)=NN2C(=O)COc2ccccc2Cl)cc1 (centres undefined) | > 1.66 | > 1.66 | –
Cc1ncc2c(n1)NC(=O)NC2 | > 83.2 | > 83.2 | –
CN1C2CCC1CC1(C2)SCCS1 | – | – | inactive
CCOC(=O)C1(Br)CCN(S(=O)(=O)c2ccc(C)cc2)c2ccccc2C1=O (centres undefined) | > 200 | 1.51 | –
[O-][N+]1=C2CCC/C(=N/O)C2(O)C2CCCCC21N1CCOCC1 (centres undefined) | > 200 | > 200 | –
Cc1ncc([N+](=O)[O-])n1CCNC(=O)CCCn1cnc([N+](=O)[O-])n1 | > 200 | > 200 | –
